From US20190308988A1, “OPIOID RECEPTOR ANTAGONIST PRODRUGS” (Nirsum Laboratories, Inc., priority 2017, published 2019)

Legend:
[1] = Dog body weights and clinical observation (Tables 66-86); type: in vivo, Beagle dogs; conditions: 48 mg/kg Shallow IM, dog D1002, 1128 hr
Experimental: Weight monitoring was done every week.
The dose formulation (concentration—400 mg base equivalents/ml in sesame oil+1% benzyl alcohol, unless otherwise specified) was administered via deep intramuscularly (unless otherwise specified). The injection vehicle was also dosed via deep intramuscular route (unless otherwise specified) on contralateral site of each animal at study initiation. The animals were sedated with Propofol at 6 mg/kg via IV administration. Following sedation hair was carefully removed from around the injection site and the area gently cleaned. Care will be taken to avoid irritating skin during shaving and cleaning the injection site. Then dogs will be dosed with deep IM administration. At least 2.5 cm depth from the surface into the central aspect of the quadriceps or biceps femoris muscle, by angling the needle toward the femur. If the needle hits the femur, simply draws back slightly and then inject. The dose volume will be determined by the animals' body weight collected on the morning of dosing day. For repeated administration, the injection sites may be rotated to minimize tissue injury.

[2] = Plasma stability, human plasma (HPLC-MS); type: in vitro ADME; conditions: 2 μM, 37° C., 15 min
Experimental: Plasma Stability Determination of the Test Compounds in Rat, Dog, Cynomolgus Monkey and human plasma is performed using HPLC-MS. For rat, incubations are carried out in 96-well polypropylene plates in 5 aliquots of 70 μL each (one for each time point). […] Five time points are analyzed (0, 15, 120, 480 and 1440 min). […] All incubations are performed in duplicates. The samples are analyzed by HPLC-MS. The percentage of parent compound remaining after incubation in plasma is determined.

Q: With `C=C1CC[C@@]2(O)C3Cc4ccc(OCOC(=O)OCCCCCCCCCCCC)c5c4[C@@]2(CCN3CC2CC2)[C@H]1O5` [Compound 24, (((4aS,7aS,12bS)-3-(cyclopropylmethyl)-4a-hydroxy-7-methylene-2,3,4,4a,5,6,7,7a-octahydro-1H-4,12-methanobenzofuro[3,2-e]isoquinolin-9-yl)oxy)methyl dodecyl carbonate] as the compound, how does the BT [1] read?
A: Its BT is “BT: 38.8 °C”.

Q: What about the “% remaining at time point in minutes, 15 min” value [2] of the same compound?
A: Its value is 94%.
